Among the test systems are UACC-62 melanoma; HCC-2998 colon; ACHN renal; NCI-H226 lung; SK-MEL-5 melanoma; RXF 393 renal; NCI-H522 lung; UO-31 renal; NCI-H23 lung; SN12C renal.
What all share (experiment): NCI-60 cell line screen, 48 h

The structures appear in SMILES notation.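 Step 1: Grow cells in 96-well plates. Step 2: Expose to compound for 48 hours at 5 concentrations. Step 3: Interpolate endpoints linearly; if unreached, use highest concentration. GI50: concentration for 50% inhibition of growth. At the TGI there is no net growth.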 A value given as a limit tells only on which side of the number the result lay.

Regarding `O=C(Nc1nc(=S)[nH][nH]1)C(=O)C(c1cnc2ccc([N+](=O)[O-])cc2n1)[N+](=O)[O-]` (stereo not given), the TGI with UACC-62 melanoma, in the assay on HCC-2998 colon, with ACHN renal, in the assay with NCI-H226 lung, in the assay with SK-MEL-5 melanoma and in the assay with RXF 393 renal was over 100 µM in each case. The TGI in the assay with NCI-H522 lung, in the assay with UO-31 renal, in the assay on NCI-H23 lung and with SN12C renal was over 100 µM each time.

On to `C#COc1cccc(Nc2ncnc3cc(NC(=O)[C@@H](C)Cl)ccc23)c1`, for which the GI50 in the assay on UACC-62 melanoma was 5.48 µM; with HCC-2998 colon, 13.9 µM; in the assay with ACHN renal it was 18.9 µM; in the assay with NCI-H226 lung, 50.1 µM; in the assay on SK-MEL-5 melanoma, 4.09 µM; in the assay with RXF 393 renal it was 8.12 µM. Moreover, the GI50 is 3.96 µM with NCI-H522 lung, 17.8 µM in the assay on UO-31 renal, 17.2 µM with NCI-H23 lung and 16.8 µM in the assay on SN12C renal. The TGI with UACC-62 melanoma was over 62.5 µM; in the assay with HCC-2998 colon, over 62.5 µM; with ACHN renal, over 62.5 µM; in the assay with NCI-H226 lung, over 62.5 µM; with SK-MEL-5 melanoma, 32.8 µM; in the assay with RXF 393 renal, 40.8 µM. Further, the TGI in the assay with NCI-H522 lung was 40.8 µM; in the assay on UO-31 renal, over 62.5 µM; in the assay with NCI-H23 lung, over 62.5 µM; in the assay with SN12C renal it was over 62.5 µM.

With `Cn1cc(-c2ccc3ncc(-c4ccc(CC(=O)Nc5cc(C(C)(C)C)nn5C)cc4)cc3c2)cn1`, the GI50 in the assay with UACC-62 melanoma was 1.26 µM; in the assay on HCC-2998 colon it was 2.73 µM; with ACHN renal, 0.689 µM; in the assay with NCI-H226 lung, 1.05 µM; with SK-MEL-5 melanoma, 0.756 µM; in the assay with RXF 393 renal, 1.14 µM. Besides, the GI50 in the assay on NCI-H522 lung was 0.995 µM; with UO-31 renal, 0.331 µM; in the assay with NCI-H23 lung, 1.1 µM; in the assay on SN12C renal, 0.854 µM. Besides, the TGI is 6.65 µM with UACC-62 melanoma; over 20 µM in the assay with HCC-2998 colon; over 20 µM in the assay with ACHN renal; 13.3 µM with NCI-H226 lung; 3 µM in the assay with SK-MEL-5 melanoma; over 20 µM with RXF 393 renal. The TGI with NCI-H522 lung was 9.06 µM; with UO-31 renal, 2.08 µM; with NCI-H23 lung, over 20 µM; in the assay with SN12C renal it was over 20 µM.

Turning to `O=C(Nc1nc2ccc(S(=O)(=O)Nc3ccc(C4(C(F)(F)F)CC4)cc3)cc2[nH]1)c1cnccn1`, the GI50 in the assay on UACC-62 melanoma was 1.51 µM; with HCC-2998 colon, 3.61 µM; with ACHN renal it was 4.39 µM; in the assay with NCI-H226 lung, 2.08 µM; with SK-MEL-5 melanoma it was 0.693 µM; in the assay with RXF 393 renal, 1.12 µM. Also, the GI50 in the assay with NCI-H522 lung is 1.07 µM; in the assay with UO-31 renal, 3.02 µM; in the assay with NCI-H23 lung it was 2.2 µM; with SN12C renal, 4.46 µM. Besides, the TGI in the assay on UACC-62 melanoma worked out at 15.4 µM; with HCC-2998 colon, 17.7 µM; with ACHN renal it was 18.2 µM; with NCI-H226 lung, 9.51 µM; with SK-MEL-5 melanoma, 4.3 µM; in the assay on RXF 393 renal it was 4.28 µM. For the same molecule, the TGI was found to be 14.4 µM in the assay with NCI-H522 lung, 13.9 µM with UO-31 renal, 15.8 µM in the assay on NCI-H23 lung and 17.6 µM with SN12C renal.

In the case of `CC(C)(C)OC(=O)N[C@H]1CC(=O)c2ccccc2N(CC(=O)O)C1=O`, the TGI with UACC-62 melanoma, with HCC-2998 colon, in the assay on ACHN renal, in the assay with NCI-H226 lung, in the assay with SK-MEL-5 melanoma and in the assay on RXF 393 renal was over 100 µM throughout. Also, the TGI with NCI-H522 lung, in the assay with UO-31 renal, with NCI-H23 lung and with SN12C renal was over 100 µM throughout.

Take `CC(=O)Nc1cccc(C#Cc2cncnc2Nc2ccc(OCc3cccc(F)c3)c(Cl)c2)c1`: the GI50 in the assay with UACC-62 melanoma was 8.88 µM; in the assay with HCC-2998 colon, 7.94 µM; with ACHN renal, 6.09 µM; in the assay on NCI-H226 lung it was 10 µM; in the assay with SK-MEL-5 melanoma, 8.12 µM; in the assay with RXF 393 renal it was 0.753 µM. The GI50 was 4.47 µM in the assay with NCI-H522 lung, 3.55 µM with UO-31 renal, 10.6 µM with NCI-H23 lung and 10.2 µM with SN12C renal. In addition, the TGI in the assay on UACC-62 melanoma is over 25 µM; with HCC-2998 colon, over 25 µM; with ACHN renal it was over 25 µM; in the assay with NCI-H226 lung, over 25 µM; in the assay with SK-MEL-5 melanoma it was over 25 µM; in the assay with RXF 393 renal, over 15.1 µM. Further, the TGI with NCI-H522 lung is 23.9 µM; with UO-31 renal it was over 25 µM; in the assay on NCI-H23 lung, over 25 µM; in the assay on SN12C renal it was over 25 µM.

As for `OCc1ccc(-c2ccc(-c3ccc(CO)o3)o2)o1`, the GI50 is 16.7 µM with UACC-62 melanoma; over 82 µM with HCC-2998 colon; 35.9 µM in the assay on ACHN renal; 0.576 µM in the assay on NCI-H226 lung; over 100 µM with SK-MEL-5 melanoma; 26.5 µM in the assay with RXF 393 renal. Moreover, the GI50 in the assay on NCI-H522 lung, in the assay on UO-31 renal, with NCI-H23 lung and in the assay with SN12C renal was over 100 µM in each case. Also, the TGI was over 100 µM in the assay on UACC-62 melanoma; over 100 µM with HCC-2998 colon; over 100 µM in the assay with ACHN renal; 2.59 µM with NCI-H226 lung; over 100 µM with SK-MEL-5 melanoma; over 90 µM with RXF 393 renal. Also, the TGI in the assay on NCI-H522 lung, in the assay on UO-31 renal, in the assay on NCI-H23 lung and in the assay with SN12C renal was over 100 µM throughout.

For `CN(C)C1C(=O)C(C(N)=O)=C(O)C2(O)C(=O)C3=C(O)c4c(O)cccc4C(C)(O)C3CC12.[Cl][Sb]([Cl])[Cl]` (stereo not given), the GI50 with UACC-62 melanoma was 2.55 µM; in the assay on HCC-2998 colon, 3.57 µM; in the assay with ACHN renal it was 4.75 µM; in the assay with NCI-H226 lung, 3.33 µM; in the assay on SK-MEL-5 melanoma it was 1.78 µM; with RXF 393 renal, 3.03 µM. The GI50 was 1.86 µM in the assay with NCI-H522 lung, 2.62 µM in the assay with UO-31 renal, 3.3 µM in the assay on NCI-H23 lung and 3.91 µM in the assay with SN12C renal. Further, the TGI in the assay on UACC-62 melanoma is 7.45 µM; in the assay on HCC-2998 colon, 14.1 µM; in the assay on ACHN renal, 18.7 µM; with NCI-H226 lung, 22 µM; in the assay on SK-MEL-5 melanoma, 4.36 µM; with RXF 393 renal it was 10.7 µM. Besides, the TGI stood at 4.1 µM in the assay with NCI-H522 lung, 16.1 µM in the assay with UO-31 renal, 12.2 µM in the assay on NCI-H23 lung and 14.9 µM in the assay with SN12C renal.
